Literature values as cited in patent US20100234388A1, “SUBSTITUTED PDE5 INHIBITORS” (AUSPEX PHARMACEUTICALS, INC., priority 2006, published 2010).

Key:
[1] = human, in vivo
[2] = human, in vivo; remark: listed apart in the source
[3] = system: PDE5 versus PDE6; settings: compared with sildenafil and vardenafil

SMILES: CN1CC(=O)N2[C@H](c3ccc4c(c3)OCO4)c3[nH]c4ccccc4c3C[C@@H]2C1=O [tadalafil, Tadalafil]
- patients with side effects of chromatopsia, increased sensitivity to light, and blurred vision [1]: less than 0.1%
- exercise tolerance [2]: improve exercise tolerance
- selectivity for PDE5 versus PDE6 [3]: much more selective
